Measurements reported in patent US20230233569A1 (Revolution Medicines, Inc., priority 2020, published 2023).
Where two headings read alike, the source gives them in different places.

Legend:
KRAS WT = KRAS WT (Homo sapiens, UniProt P01116+P62937); assay: Disruption of BRAF RBD interaction with Ras (FRET / MOA assay, with Cyclophilin A); type: biochemical
How it was run: (§1)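 Measured via TR-FRET after 3 h at 25 °C with compound (30 μM top, threefold serial steps, ten concentrations) plus K-Ras, Cyclophilin A and BRAF RBD, followed by 1.5 h with anti-His europium (10 nM) and anti-GST allophycocyanin (50 nM). Signal loss versus DMSO gave IC50.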

KRAS G13D = KRAS G13D (Homo sapiens, UniProt P01116+P62937, G13D); assay: as above; type: biochemical
How it was run: as §1

KRAS G12S = KRAS G12S (Homo sapiens, UniProt P01116+P62937, G12S); assay: as above; type: biochemical
How it was run: as §1

KRAS G12V = KRAS G12V (Homo sapiens, UniProt P01116+P62937, G12V); assay: as above; type: biochemical
How it was run: as §1

KRAS G12C = KRAS G12C (Homo sapiens, UniProt P01116+P62937, G12C); assay: as above; type: biochemical
How it was run: as §1

KRAS G12D = KRAS G12D (Homo sapiens, UniProt P01116+P62937, G12D); assay: as above; type: biochemical
How it was run: as §1

NRAS G12C = NRAS G12C (Homo sapiens, UniProt P01111+P62937, G12C); assay: as above; type: biochemical
KRAS G13C = KRAS G13C (Homo sapiens, UniProt P01116+P62937, G13C); assay: as above; type: biochemical
How it was run: as §1

Capan-1 (K-Ras G12V) = assay: CellTiter-Glo cell viability assay, 5-day treatment; type: cell-based; settings: Homo sapiens, CAPAN-1, 120 h, 5-day treatment; read-out: Capan-1 Cell Viability assay data (K-Ras G12V, IC50)
How it was run: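 Compounds were dispensed directly onto seeded cells and incubated for 5 days, then plates were equilibrated to room temperature for about 30 minutes before luminescence reading. Signals were expressed as percent of the mean DMSO control and fitted with a four-parameter logistic curve.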

[1] = KRAS WT, read-out: KRAS WT FRET data IC50
[2] = KRAS G13D, read-out: KRAS G13D FRET data IC50
[3] = read-out: KRAS G12S FRET data, IC50
[4] = KRAS G12V, read-out: KRAS G12V FRET data IC50
[5] = read-out: KRAS G12C FRET data, IC50
[6] = read-out: KRAS G12D FRET data, IC50
[7] = NRAS G12C, read-out: NRAS G12C FRET data IC50
[8] = read-out: KRAS G13C FRET data, IC50

NRAS G12C, sequence (P01111 whole entry G12C): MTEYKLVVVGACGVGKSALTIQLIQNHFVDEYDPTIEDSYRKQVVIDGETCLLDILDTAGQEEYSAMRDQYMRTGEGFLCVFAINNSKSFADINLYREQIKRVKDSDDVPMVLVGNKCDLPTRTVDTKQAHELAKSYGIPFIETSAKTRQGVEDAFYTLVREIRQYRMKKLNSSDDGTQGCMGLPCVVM
NRAS G12C, sequence (P62937 whole entry): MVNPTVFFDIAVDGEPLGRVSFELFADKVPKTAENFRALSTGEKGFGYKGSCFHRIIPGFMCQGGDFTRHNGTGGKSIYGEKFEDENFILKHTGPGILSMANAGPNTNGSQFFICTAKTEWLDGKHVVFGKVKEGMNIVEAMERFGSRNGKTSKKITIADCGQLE
KRAS WT, sequence (P01116 1-169 isoform P01116-2 limits assumed): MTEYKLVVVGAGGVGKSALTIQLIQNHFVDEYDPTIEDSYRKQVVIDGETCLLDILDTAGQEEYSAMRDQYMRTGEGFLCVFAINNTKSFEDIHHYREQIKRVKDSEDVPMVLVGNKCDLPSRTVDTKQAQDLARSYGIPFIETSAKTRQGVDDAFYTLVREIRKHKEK
KRAS WT, sequence (P62937 whole entry): as the sequence (P62937 whole entry) above
KRAS G12V, sequence (P01116 1-169 isoform P01116-2 G12V limits assumed): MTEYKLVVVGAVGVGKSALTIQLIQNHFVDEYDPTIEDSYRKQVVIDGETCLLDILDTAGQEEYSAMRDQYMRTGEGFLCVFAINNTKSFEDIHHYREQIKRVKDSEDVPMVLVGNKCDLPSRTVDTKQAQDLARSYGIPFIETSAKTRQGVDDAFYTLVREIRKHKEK
KRAS G12V, sequence (P62937 whole entry): as the sequence (P62937 whole entry) above
KRAS G12D, sequence (P01116 1-169 isoform P01116-2 G12D limits assumed): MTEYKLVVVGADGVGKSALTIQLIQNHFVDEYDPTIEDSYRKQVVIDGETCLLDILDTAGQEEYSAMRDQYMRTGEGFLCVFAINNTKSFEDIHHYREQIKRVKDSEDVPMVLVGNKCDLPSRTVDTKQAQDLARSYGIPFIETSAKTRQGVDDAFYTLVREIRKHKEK
KRAS G12D, sequence (P62937 whole entry): as the sequence (P62937 whole entry) above
KRAS G12C, sequence (P01116 1-169 isoform P01116-2 G12C): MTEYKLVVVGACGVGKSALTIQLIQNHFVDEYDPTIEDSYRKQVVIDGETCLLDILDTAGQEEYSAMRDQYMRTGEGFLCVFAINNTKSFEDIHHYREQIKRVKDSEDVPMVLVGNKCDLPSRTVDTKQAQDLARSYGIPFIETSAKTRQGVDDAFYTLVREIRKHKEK
KRAS G12C, sequence (P62937 whole entry): as the sequence (P62937 whole entry) above
KRAS G13D, sequence (P01116 1-169 isoform P01116-2 G13D limits assumed): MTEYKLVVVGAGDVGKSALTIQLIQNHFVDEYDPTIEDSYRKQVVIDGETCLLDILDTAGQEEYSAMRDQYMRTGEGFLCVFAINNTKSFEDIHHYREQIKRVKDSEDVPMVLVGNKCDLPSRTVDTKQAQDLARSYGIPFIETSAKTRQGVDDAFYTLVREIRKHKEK
KRAS G13D, sequence (P62937 whole entry): as the sequence (P62937 whole entry) above
KRAS G13C, sequence (P01116 1-169 isoform P01116-2 G13C): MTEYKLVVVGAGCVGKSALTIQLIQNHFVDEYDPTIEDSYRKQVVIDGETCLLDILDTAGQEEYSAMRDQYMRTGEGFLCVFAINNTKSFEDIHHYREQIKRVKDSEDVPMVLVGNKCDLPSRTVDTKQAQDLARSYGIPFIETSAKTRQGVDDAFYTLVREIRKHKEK
KRAS G13C, sequence (P62937 whole entry): as the sequence (P62937 whole entry) above
KRAS G12S, sequence (P01116 1-169 isoform P01116-2 G12S limits assumed): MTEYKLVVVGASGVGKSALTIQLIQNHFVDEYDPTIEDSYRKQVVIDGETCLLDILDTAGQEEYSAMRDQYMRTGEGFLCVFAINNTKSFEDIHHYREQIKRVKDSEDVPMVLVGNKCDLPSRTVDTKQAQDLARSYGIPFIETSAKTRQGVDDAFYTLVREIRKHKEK
KRAS G12S, sequence (P62937 whole entry): as the sequence (P62937 whole entry) above

IC50 (KRAS WT; [1]) [nM] | IC50 (KRAS G13D; [2]) [nM] | IC50 (KRAS G12S; [3]) [nM] | IC50 (KRAS G12V; [4]) [nM] | IC50 (KRAS G12C; [5]) [nM] | IC50 (KRAS G12D; [6]) [nM] | IC50 (NRAS G12C; [7]) [nM] | IC50 (KRAS G13C; [8]) [nM] | IC50 (KRAS WT; KRAS WT FRET data IC50, KRAS WT) [nM] | IC50 (KRAS G13D; KRAS G13D FRET data IC50, KRAS G13D) [nM] | IC50 (KRAS G12S; KRAS G12S FRET data, IC50) [nM] | IC50 (KRAS G12V; KRAS G12V FRET data IC50, KRAS G12V) [nM] | IC50 (KRAS G12C; KRAS G12C FRET data, IC50) [nM] | IC50 (KRAS G12D; KRAS G12D FRET data, IC50) [nM] | IC50 (NRAS G12C; NRAS G12C FRET data IC50, NRAS G12C) [nM] | IC50 (KRAS G13C; KRAS G13C FRET data, IC50) [nM] | Structure (SMILES) | IC50 (Capan-1 (K-Ras G12V)) [nM]
100 to 1000 | 1000 to 10000 | 1000 to 10000 | 1000 to 10000 | 100 to 1000 | 100 to 1000 | 100 to 1000 | 100 to 1000 |  |  |  |  |  |  |  |  | CCn1c(-c2cccnc2[C@H](C)OC)c2c3cc(ccc31)-c1csc(n1)C[C@H](NC(=O)[C@H](C(C)C)N(C)C(=O)[C@H]1CCN(C(=O)CN)C1)C(=O)N1CCC[C@H](N1)C(=O)OCC(C)(C)C2 [Example A106] | 1000 to 10000
1000 to 10000 | 1000 to 10000 | 1000 to 10000 | > 10000 | 1000 to 10000 | 1000 to 10000 | 1000 to 10000 | 1000 to 10000 |  |  |  |  |  |  |  |  | CCn1c(-c2cccnc2[C@H](C)OC)c2c3cc(ccc31)-c1csc(n1)C[C@H](NC(=O)[C@H](C(C)C)N(C)C(=O)[C@H]1CCN(C)C1)C(=O)N1CCC[C@H](N1)C(=O)OCC(C)(C)C2 [Example A108] | > 10000
1000 to 10000 | 1000 to 10000 | 1000 to 10000 | > 10000 | 1000 to 10000 | 1000 to 10000 | 1000 to 10000 | 100 to 1000 |  |  |  |  |  |  |  |  | CCn1c(-c2cccnc2[C@H](C)OC)c2c3cc(ccc31)-c1cccc(c1)C[C@H](NC(=O)[C@H](C(C)C)N(C)C(=O)[C@H]1CCN(CCO)C1)C(=O)N1CCC[C@H](N1)C(=O)OCC(C)(C)C2 [Example A109] | > 10000
1000 to 10000 | 1000 to 10000 | 1000 to 10000 | 1000 to 10000 | 1000 to 10000 | 1000 to 10000 | 1000 to 10000 | 1000 to 10000 |  |  |  |  |  |  |  |  | CCn1c(-c2cccnc2[C@H](C)OC)c2c3cc(ccc31)-c1cccc(c1)C[C@H](NC(=O)[C@H](C(C)C)N(C)C(=O)[C@H]1CCN(C(=O)C(C)(C)N(C)C)C1)C(=O)N1CCC[C@H](N1)C(=O)OCC(C)(C)C2 [Example A112] | 1000 to 10000
1000 to 10000 | 1000 to 10000 | 1000 to 10000 | 1000 to 10000 | 1000 to 10000 | 1000 to 10000 | 1000 to 10000 | 1000 to 10000 |  |  |  |  |  |  |  |  | CCn1c(-c2cccnc2[C@H](C)OC)c2c3cc(ccc31)-c1csc(n1)C[C@H](NC(=O)[C@H](C(C)C)N(C)C(=O)[C@H]1CCN(C(=O)C(C)(C)N(C)C)C1)C(=O)N1CCC[C@H](N1)C(=O)OCC(C)(C)C2 [Example A113] | 1000 to 10000
 |  |  |  |  |  |  |  | 100 to 1000 | 100 to 1000 | 100 to 1000 | 1000 to 10000 | 100 to 1000 | 100 to 1000 | 100 to 1000 | 100 to 1000 | CCn1c(-c2cccnc2[C@H](C)OC)c2c3cc(ccc31)-c1cc(O)cc(c1)C[C@H](NC(=O)[C@H](C(C)C)N(C)C(=O)C1CCNCC1)C(=O)N1CCC[C@H](N1)C(=O)OCC(C)(C)C2 [Example A122] | > 10000
10 to 100 | 10 to 100 | 10 to 100 | 10 to 100 | 10 to 100 | 10 to 100 | 10 to 100 | 10 to 100 |  |  |  |  |  |  |  |  | CCn1c(-c2cccnc2[C@H](C)OC)c2c3cc(ccc31)-c1cc(O)cc(c1)C[C@H](NC(=O)[C@H](C(C)C)N(C)C(=O)[C@H]1CCN(C(=O)[C@@]3(C)CCCN3)C1)C(=O)N1CCC[C@H](N1)C(=O)OCC(C)(C)C2 [Example A135] | 1000 to 10000
10 to 100 | 100 to 1000 | 100 to 1000 | 100 to 1000 | 10 to 100 | 100 to 1000 | 100 to 1000 | 10 to 100 |  |  |  |  |  |  |  |  | C=C[C@@H]1C[C@]1(N)C(=O)N(C)[C@H](C(=O)N[C@H]1Cc2cc(O)cc(c2)-c2ccc3c(c2)c(c(-c2cccnc2[C@H](C)OC)n3CC)CC(C)(C)COC(=O)[C@@H]2CCCN(N2)C1=O)C(C)C [Example A149] | 1000 to 10000
10 to 100 | 10 to 100 | 100 to 1000 | 100 to 1000 | 10 to 100 | 100 to 1000 | 10 to 100 | 10 to 100 |  |  |  |  |  |  |  |  | CCn1c(-c2cccnc2[C@H](C)OC)c2c3cc(ccc31)-c1cc(O)cc(c1)C[C@H](NC(=O)[C@H](C(C)C)N(C)C(=O)C1CC13CCNCC3)C(=O)N1CCC[C@H](N1)C(=O)OCC(C)(C)C2 (stereo partly drawn) [Example A151] | > 10000
